One assay deals with T1, 5-HT1A (Homo sapiens, UniProt P08908).
T1 construct: gene HTR1A; full-length receptor; HEK293 with TRUPATH sensors
Nature of the assay: TRUPATH BRET2 G protein dissociation, HEK293. Type of assay: cell-based. The conditions noted are these: HBSS, […] HEPES pH […] °C; agonist mode. (In general: In BRET a luciferase serves as donor, and the signal depends on an acceptor being close.)

The target of assay [1] is T2, M3 (Homo sapiens, UniProt P20309).
T2 construct: gene CHRM3; full-length receptor; HEK293 with TRUPATH sensors (function)
Nature of the assay: competitive radioligand binding, HEK293 membranes. The source says:
competitive radioligand binding, HEK293 membranes on M3

In another assay the target is T3, M2 (Homo sapiens, UniProt P08172).
T3 construct: gene CHRM2; full-length receptor; HEK293 with TRUPATH sensors (function)
T3 sequence (P08172 1-466): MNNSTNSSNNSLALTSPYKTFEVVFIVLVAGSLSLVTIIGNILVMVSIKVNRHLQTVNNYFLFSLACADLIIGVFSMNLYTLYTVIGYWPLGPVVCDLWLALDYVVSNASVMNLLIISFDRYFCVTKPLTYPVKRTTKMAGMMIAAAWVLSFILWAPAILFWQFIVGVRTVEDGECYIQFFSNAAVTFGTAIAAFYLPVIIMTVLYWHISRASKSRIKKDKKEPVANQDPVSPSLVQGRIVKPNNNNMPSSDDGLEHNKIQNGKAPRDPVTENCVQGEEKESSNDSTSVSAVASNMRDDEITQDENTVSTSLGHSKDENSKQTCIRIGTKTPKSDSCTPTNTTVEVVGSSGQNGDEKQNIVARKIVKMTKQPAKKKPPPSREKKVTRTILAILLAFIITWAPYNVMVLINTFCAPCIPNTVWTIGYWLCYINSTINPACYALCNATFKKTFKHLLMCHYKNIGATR
Nature of the assay: TRUPATH BRET2 G protein dissociation, HEK293. Type of assay: cell-based. The conditions noted are these: HBSS, […] HEPES pH […] °C; agonist mode.

The next assay deals with T4, M5 (Homo sapiens, UniProt P08912).
T4 construct: gene CHRM5; full-length receptor; HEK293 with TRUPATH sensors (function)
T4 sequence (P08912 1-532): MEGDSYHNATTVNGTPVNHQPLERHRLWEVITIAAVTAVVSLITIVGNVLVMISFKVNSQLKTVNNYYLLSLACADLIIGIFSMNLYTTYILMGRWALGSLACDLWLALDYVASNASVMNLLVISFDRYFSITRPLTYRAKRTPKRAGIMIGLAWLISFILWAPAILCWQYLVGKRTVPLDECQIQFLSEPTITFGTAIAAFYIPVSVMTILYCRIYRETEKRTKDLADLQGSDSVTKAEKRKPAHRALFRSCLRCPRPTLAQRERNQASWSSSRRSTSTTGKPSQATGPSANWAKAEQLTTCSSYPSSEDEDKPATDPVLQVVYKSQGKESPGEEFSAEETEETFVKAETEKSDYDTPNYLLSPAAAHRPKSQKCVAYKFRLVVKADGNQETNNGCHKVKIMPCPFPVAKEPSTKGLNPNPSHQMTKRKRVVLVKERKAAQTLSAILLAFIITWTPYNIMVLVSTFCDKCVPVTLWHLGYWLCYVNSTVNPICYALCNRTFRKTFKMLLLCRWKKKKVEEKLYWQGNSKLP
Description: TRUPATH BRET2 G protein dissociation, HEK293. As to conditions: HBSS, […] HEPES pH […] °C; agonist mode. It is filed as cell-based.

The target of another assay is T5, KOR (Homo sapiens, UniProt P41145).
T5 construct: gene OPRK1; full-length receptor; HEK293 cell membranes
Nature of the assay: competitive radioligand binding, HEK293 membranes. From the text: competitive radioligand binding, HEK293 membranes on KOR

The target of assay [2] is T2, M3. Description: TRUPATH BRET2 G protein dissociation, HEK293. It is filed as cell-based. The conditions noted are these: HBSS, […] HEPES pH […] °C; agonist mode.
Another assay has as its target T6, 5-HT1B (Homo sapiens, UniProt P28222).
T6 construct: gene HTR1B; full-length receptor; HEK293 cell membranes
Nature of the assay: competitive radioligand binding, HEK293 membranes. The source says: competitive radioligand binding, HEK293 membranes on 5-HT1B

The next assay deals with HRH3 (Homo sapiens, UniProt Q9Y5N1). Nature of the assay: cell-based. The conditions noted are these: agonist mode. Also noted: species or system HEK293; TRUPATH BRET2 G-protein dissociation; antagonist mode against agonist EC80.
The target of a further assay is T7, HTR1A (Homo sapiens, UniProt P08908).
T7 sequence (P08908 1-422): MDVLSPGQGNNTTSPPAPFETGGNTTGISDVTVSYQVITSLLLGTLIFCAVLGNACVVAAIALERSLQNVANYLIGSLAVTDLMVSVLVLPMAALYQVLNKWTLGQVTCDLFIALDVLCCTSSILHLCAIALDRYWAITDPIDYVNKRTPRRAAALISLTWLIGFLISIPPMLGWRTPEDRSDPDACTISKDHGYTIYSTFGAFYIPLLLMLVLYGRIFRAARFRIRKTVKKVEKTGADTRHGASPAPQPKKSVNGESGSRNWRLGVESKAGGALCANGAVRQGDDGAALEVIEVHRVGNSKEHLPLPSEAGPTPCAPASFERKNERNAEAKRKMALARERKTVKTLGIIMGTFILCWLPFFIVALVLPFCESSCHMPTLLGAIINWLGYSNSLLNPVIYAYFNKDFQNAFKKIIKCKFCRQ
Nature of the assay: cell-based. Also noted: species or system HEK293; TRUPATH BRET2 G-protein dissociation; antagonist mode against agonist EC80. As to conditions: agonist mode.

Where [3] appears, read: N-Desmethyl Xanomeline, Assay=Gi2.
Where [4] appears, read: N-Desmethyl Xanomeline, Assay=GoB.

Molecules are shown by their SMILES.

A word on the EC50: it is the concentration needed to bring the measured effect to its halfway point. High values mean weaker potency, low ones greater potency. A word on the Ki: it is a dissociation constant, usually derived from enzyme kinetics or from competition with a known ligand. A lower Ki goes with a stronger hold on the target.

Consider `CCCCCCOc1nsnc1C1=CCCNC1` [N-desmethylxanomeline], for which the EC50 result on 5-HT1A is “full or partial agonists at 5-HT1D and 5-HT1A in a transducer-dependent fashion”; at M2, “differential activation of M1-M5 muscarinic receptor transducers”; on M5 it was “differential activation of M1-M5 muscarinic receptor transducers”; at M3 [2] it was “differential activation of M1-M5 muscarinic receptor transducers”; at HRH3 (N-Desmethyl Xanomeline, Assay=Gi1), 10900 nM; at HRH3 (setting [3]), 4530 nM. For the same compound, the EC50 was determined as 18700 nM at HRH3 (N-Desmethyl Xanomeline, Assay=Gi3); 7020 nM on HRH3 (setting [4]); 4340 nM on HTR1A (setting [3]); 1320 nM on HTR1A (N-Desmethyl Xanomeline, Assay=GoA); 2000 nM at HTR1A (setting [4]). In addition, the Ki at M3 [1] is 112 nM; at KOR, 1020 nM; on 5-HT1B, 178 nM.
`CCCCCCOc1nsnc1C1=CCCN(C)C1` [Xanomeline]: the EC50 result is “full or partial agonists at 5-HT1D and 5-HT1A in a transducer-dependent fashion” on 5-HT1A; “differential activation of M1-M5 muscarinic receptor transducers” on M2; “differential activation of M1-M5 muscarinic receptor transducers” on M5; “differential activation of M1-M5 muscarinic receptor transducers” on M3 [2]; 10300 nM at HRH3 (Xanomeline, Assay=Gi2); 4130 nM at HRH3 (Xanomeline, Assay=GoA). The EC50 at HRH3 (Xanomeline, Assay=GoB) was found to be 2640 nM; at HTR1A (Xanomeline, Assay=Gi2), 11700 nM; on HTR1A (Xanomeline, Assay=GoA) it was 2340 nM; on HTR1A (Xanomeline, Assay=GoB), 3690 nM. Besides, the Ki on M3 [1] is 74.1 nM; at KOR it was 1780 nM; at 5-HT1B, 724 nM.

Source of the values: paper doi:10.1101/2025.11.20.689572v1 (biorxiv, 2025).
